Results on five molecules are retold here after PMC11983102, “Conjugation to a transferrin receptor 1-binding Bicycle peptide enhances ASO and siRNA potency in skeletal and cardiac muscles” (Nucleic Acids Research, 2025).

Numbered stars: 1 amine (or outer) side, 2 acyl side, 3 side chain; on linkers, the order of the positions; unused ones are H or OH. Bridge positions count the residues as written; N and C are the ends. Peptide text beside a SMILES is read from it. TATB = O=C(C[*:1])N1CN(C(=O)C[*:2])CN(C(=O)C[*:3])C1

One data set addresses T1, human TfR1 (Homo sapiens, UniProt P02786).
T1 construct: received from Bicycle Therapeutics as His6-tagged TfR1 (a.a. 89-760) (ACROBiosystems, CD1-H5243 and TfR-C524a); His6; purchased ACROBiosystems CD1-H5243
Briefly: SPR binding of Bicycle peptides and conjugates to human TfR1. As to conditions: SPR (Biacore), human TfR1 captured on SA chip, 5-point single cycle kinetics, PBS-P+ 1% DMSO pH 7.4; geometric mean; unconjugated Bicycle peptides.

The next data set can be described thus: Mouse plasma stability. The class given is in vitro ADME. How it is done:
An alanine scan was performed to identify core residues involved in binding to the protein and solvent-facing residues which could be used to tune molecular properties, followed by substitutions with non-natural amino acids to identify suitable replacements at each position. In addition, peptides were synthesized to investigate the removal of the N- and C-terminal alanines, capping the N-terminal with an acetyl group, and to examine the effects of combinations with N- and C-terminal extensions. Affinity was measured using either SPR or fluorescence polarization (FP) assays, and plasma stability in mouse was determined for selected examples. Series of analogues with the azidolysine (K(N3)) or azidopropanoic acid (AzPro) were prepared on the C- and N-terminal of the Bicycle molecules, respectively. These were used to conjugate to an ASO or siRNA for further profiling.

T1 sequence (P02786 89-760): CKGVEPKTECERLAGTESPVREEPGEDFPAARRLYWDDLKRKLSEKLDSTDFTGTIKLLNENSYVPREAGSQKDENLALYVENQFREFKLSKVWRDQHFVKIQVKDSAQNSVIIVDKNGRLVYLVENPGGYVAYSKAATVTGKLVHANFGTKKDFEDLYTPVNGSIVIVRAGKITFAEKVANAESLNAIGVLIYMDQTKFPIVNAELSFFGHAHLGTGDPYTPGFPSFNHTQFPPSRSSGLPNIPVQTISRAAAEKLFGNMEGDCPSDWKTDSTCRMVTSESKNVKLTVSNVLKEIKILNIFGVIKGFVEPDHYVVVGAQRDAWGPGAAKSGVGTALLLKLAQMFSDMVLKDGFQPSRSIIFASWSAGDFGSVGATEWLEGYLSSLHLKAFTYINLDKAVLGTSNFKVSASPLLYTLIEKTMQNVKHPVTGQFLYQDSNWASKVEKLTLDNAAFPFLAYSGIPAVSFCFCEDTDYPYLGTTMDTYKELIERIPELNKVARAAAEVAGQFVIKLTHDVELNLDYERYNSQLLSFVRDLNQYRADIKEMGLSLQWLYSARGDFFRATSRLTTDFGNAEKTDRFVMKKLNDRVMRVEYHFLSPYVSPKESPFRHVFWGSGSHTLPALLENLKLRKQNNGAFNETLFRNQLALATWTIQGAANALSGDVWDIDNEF
Method for human TfR1: Biacore experiments were performed to determine ka (M^-1s^-1), kd (s^-1), KD (nM) values of various peptides binding to TfR1. […] SPR binding analysis was performed on Biacore T200 and Biacore 8K+ (Cytiva). Human TfR1 and randomly biotinylated cynomolgus monkey TfR1 were captured on Series S Sensor Chip SA (BR100531, Cytiva) at levels of approximately 1000 RU. Using an appropriate top concentration, Bicycle peptides were screened in a 5-point titration curve in single cycle kinetics format at 30 ml/minute. The running buffer was PBS-P^+, 1% DMSO at pH 7.4. The data was solvent-corrected for DMSO bulk effects. In addition, all data was double corrected against the reference flow cell and matched buffer blanks. Data processing and kinetic fitting were performed using Biacore T200 Evaluation Software or Biacore Insight Evaluation. The data was fitted using the 1:1 binding model or steady-state affinity model where appropriate. The geometric mean (geomean) KD (nM) for binders was calculated by transforming unique KD values by log10, arithmetic-mean-averaging the transformed values, and subsequently anti-log-transforming the averaged value.

`CC[C@H](C)[C@@H]1NC(=O)[C@@H]2CSCC(=O)N3CN(CN(C3)C(=O)CSC[C@@H](C(=O)N[C@@H](C)C(N)=O)NC(=O)[C@H](Cc3ccc(O)cc3)NC(=O)[C@H](CO)NC1=O)C(=O)CSC[C@H](NC(=O)[C@H](C)N)C(=O)N[C@@H](CO)C(=O)N1CCC[C@H]1C(=O)N[C@@H](CC(=O)O)C(=O)N[C@@H](C)C(=O)N[C@@H](Cc1c[nH]cn1)C(=O)N[C@@H](CC(C)C)C(=O)NCC(=O)N2` [BCY15468]: the Kd on human TfR1 turned out to be 143 nM.
Turning to `CC[C@H](C)[C@@H]1NC(=O)[C@@H]2CSCC(=O)N3CN(CN(C3)C(=O)CSC[C@H](NC(C)=O)C(=O)N[C@@H](CO)C(=O)N3CCC[C@H]3C(=O)N[C@@H](CC(=O)O)C(=O)N[C@@H](C)C(=O)N[C@@H](Cc3c[nH]cn3)C(=O)N[C@@H](CC(C)C)C(=O)NCC(=O)N2)C(=O)CSC[C@@H](C(N)=O)NC(=O)[C@H](Cc2ccc(O)cc2)NC(=O)[C@H](CO)NC1=O` [BCY15891] (Ac-CSPDAHLGCISYC-NH2; linker 1-9-13 via TATB), the half-life in the data set “Mouse plasma stability” is 22.7 h.
In turn, `CC[C@H](C)[C@@H]1NC(=O)[C@@H]2CSCC(=O)N3CN(CN(C3)C(=O)CSC[C@@H](C(=O)N[C@@H](C)C(N)=O)NC(=O)[C@H](Cc3cccc4ccccc34)NC(=O)[C@H](CO)NC1=O)C(=O)CSC[C@H](NC(=O)[C@H](C)N)C(=O)N[C@@H](CO)C(=O)N1CCC[C@H]1C(=O)N[C@@H](CC(=O)O)C(=O)N[C@@H](C)C(=O)N[C@@H](Cc1c[nH]cn1)C(=O)N[C@@H](CC(C)C)C(=O)NCC(=O)N2` [compound 16029] registered a Kd on human TfR1 of 60 nM.
`CC[C@H](C)[C@@H]1NC(=O)[C@@H]2CSCC(=O)N3CN(CN(C3)C(=O)CSC[C@@H](C(=O)N[C@@H](C)C(N)=O)NC(=O)[C@H](Cc3ccc4ccccc4c3)NC(=O)[C@H](CO)NC1=O)C(=O)CSC[C@H](NC(=O)[C@H](C)N)C(=O)N[C@@H](CO)C(=O)N1CCC[C@H]1C(=O)N[C@@H](CC(=O)O)C(=O)N[C@@H](C)C(=O)N[C@@H](Cc1c[nH]cn1)C(=O)N[C@@H](CC(C)C)C(=O)NCC(=O)N2` [compound 16031] had a Kd at human TfR1 of 68 nM.
The same measure, in the same setting: to `CC[C@H](C)[C@@H]1NC(=O)[C@@H]2CSCC(=O)N3CN(CN(C3)C(=O)CSC[C@@H](C(=O)N[C@@H](C)C(N)=O)NC(=O)[C@H](Cc3ccc(O)cc3)NC(=O)[C@H](CO)NC1=O)C(=O)CSC[C@H](NC(=O)[C@H](C)N)C(=O)N[C@@H](CO)C(=O)N1C[C@H](O)C[C@H]1C(=O)N[C@@H](CC(=O)O)C(=O)N[C@@H](C)C(=O)N[C@@H](Cc1c[nH]cn1)C(=O)N[C@@H](CC(C)C)C(=O)NCC(=O)N2` [compound 16047] belongs 49 nM.
